Two test systems from the supplement of paper PMC10331698 can be followed below.

Holding throughout (assay): level (log10 ratio to DMSO vehicle control); higher = higher biomarker level / cell amount than vehicle control
Settings in all cases: in DMSO

Compound in one assay: NC(=O)C(F)(F)C(F)(F)C(F)(F)F [Heptafluorobutyramide]
As to the method: (§1)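 BioMAP Diversity Plus panel of 12 human primary cell co-culture systems (3C, 4H, LPS, SAg, BT, BF4T, BE3C, CASM3C, HDF3CGF, KF3CT, MyoF, Mphg). Compounds were added 1 h before stimulation and left for 24 h (MyoF 48 h; BT 72 h for soluble read-outs or 6 d for IgG). Biomarkers were read by ELISA, cytotoxicity by SRB, PBMC viability and proliferation by Alamar Blue. Each well value was divided by the mean of 8 DMSO control wells on the same plate and log10 transformed; duplicate blinded samples were tested at 4 concentrations.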

Compound in assay [1]: FC(F)(F)C(F)(F)C(F)(F)C(F)(F)C(F)(F)CCI [1-Iodo-1H,1H,2H,2H-perfluoroheptane]
The protocol:
as §1

Compound in assay [2]: COC(=O)CCC(F)(F)C(F)(F)C(F)(F)C(F)(F)F [Methyl 2H,2H,3H,3H-perfluoroheptanoate]
As to the method: as §1

Compound in assay [3]: O=C(O)C(F)(F)OC(F)(F)C(F)(F)OC(F)(F)F [Perfluoro-3,6-dioxaheptanoic acid]
The protocol: as §1

Compound in assay [4]: NCC(F)(F)C(F)(F)C(F)(F)C(F)(F)C(F)(F)C(F)(F)C(F)(F)F [1H,1H-Perfluorooctylamine]
As to the method: as §1

Compound in another assay: FC(F)(F)C(F)(F)C(F)(F)C(F)(F)C(F)(F)C(F)(F)I [Perfluoro-1-iodohexane]
As to the method: as §1

± gives the standard deviation of the averaged measurements.

For SAg:Proliferation, the “level (log10)” value is -0.0035 ± 0.03 in the assay with Heptafluorobutyramide (6700 nM); -0.0055 ± 0.00071 in the assay with Heptafluorobutyramide (20000 nM); -0.0265 ± 0.011 in the assay with Heptafluorobutyramide (60000 nM); -0.014 ± 0.035 in assay [1] (6700 nM); -0.0145 ± 0.0064 in assay [1] (20000 nM); -0.15 ± 0.054 in assay [1] (60000 nM). Besides, the “level (log10)” value was 0.0115 ± 0.029 in assay [2] (6700 nM); 0.001 ± 0.0014 in assay [2] (20000 nM); 0.0075 ± 0.0078 in assay [2] (60000 nM); -0.023 ± 0.061 in assay [3] (6700 nM); -0.005 ± 0.025 in assay [3] (20000 nM); 0.0115 ± 0.04 in assay [3] (60000 nM). The “level (log10)” value in assay [4] (6700 nM) is -0.004 ± 0.024; in assay [4] (20000 nM) it was -0.0195 ± 0.019; in assay [4] (60000 nM), -0.174 ± 0.24; with Perfluoro-1-iodohexane (6700 nM), -0.031 ± 0.044; in the assay with Perfluoro-1-iodohexane (20000 nM) it was -0.055 ± 0.02; with Perfluoro-1-iodohexane (60000 nM), -0.0395 ± 0.04.

In the case of SAg:SRB, the “level (log10)” value is -0.018 ± 0.025 in the assay with Heptafluorobutyramide (6700 nM); -0.0125 ± 0.011 in the assay with Heptafluorobutyramide (20000 nM); -0.0095 ± 0.018 with Heptafluorobutyramide (60000 nM); 0.0065 ± 0.011 in assay [1] (6700 nM); 0.0015 ± 0.016 in assay [1] (20000 nM); -0.001 ± 0.0085 in assay [1] (60000 nM). Further, the “level (log10)” value in assay [2] (6700 nM) was 0.008 ± 0.027; in assay [2] (20000 nM) it was 0.0005 ± 0.0064; in assay [2] (60000 nM) it was -0.0085 ± 0.0092; in assay [3] (6700 nM) it was -0.0085 ± 0.0035; in assay [3] (20000 nM) it was -0.0175 ± 0.00071; in assay [3] (60000 nM), -0.008 ± 0.0085. The “level (log10)” value in assay [4] (6700 nM) is 0.0005 ± 0.0035; in assay [4] (20000 nM), -0.002 ± 0.014; in assay [4] (60000 nM), -0.001 ± 0.027; with Perfluoro-1-iodohexane (6700 nM), -0.0075 ± 0.011; in the assay with Perfluoro-1-iodohexane (20000 nM), -0.002 ± 0.0014; with Perfluoro-1-iodohexane (60000 nM), -0.0045 ± 0.011.
